The subject of one series is Trypanosoma cruzi. Briefly: Antitrypanosomal activity against Trypanosoma cruzi Y trypomastigotes infected in monkey LLC-MK2 cells assessed as parasite growth inhibition incubated for 24 hrs by resazurin dye based microplate reader assay. Type of series: functional, organism-based. On the technique in general: The colour change of resazurin is a common sign of viable cells or microbes.

The nature of series [1]: Cytotoxicity against mouse NCTC clone 929 cells incubated for 48 hrs by MTT spectrophotometric assay. Particulars: NCTC clone 929 (L929) cells; call rule not given here. Type of series: toxicity, cell-based. Background: Tetrazolium dyes change colour on reduction, which living cells bring about.
Series [2] in a line: Selectivity index, ratio of CC50 for cytotoxicity against mouse NCTC clone 929 cells to IC50 for antitrypanosomal activity against Trypanosoma cruzi Y trypomastigotes infected in monkey LLC-MK2 cells assessed as parasite growth inhibition. As to conditions: read-out: Ratio CC50/IC50. It is filed as toxicity, cell-based.
The mark [3] stands for this setting: Trypanosoma cruzi, Y, LLC-MK2, 24 h, read-out: IC50.

Some results are limits rather than exact numbers.

`COc1ccc(OC)c(Nc2nc(NCCCO)nc3c2cnn3-c2ccccc2)c1`: the IC50 – broadly, the concentration that inhibits the measured activity by half – with Trypanosoma cruzi (setting [3]) is 10.1 µM. Besides, in series [1], the CC50 (in general, the concentration giving 50% cytotoxicity) at 48 h is greater than 200 µM. The selectivity ratio in series [2] is greater than 19.8. On to `Cc1ccc2nc(NC(=O)[C@H]3CCCN3S(=O)(=O)c3cccc4nsnc34)sc2c1`, for which the IC50 entry in the series on Trypanosoma cruzi was “Not Active”.

As to `Cc1cccc(NC(=O)[C@@H](Cc2ccccc2)NS(=O)(=O)c2cccc3nsnc23)c1`, in the series with Trypanosoma cruzi (setting [3]), the IC50 came to 22.8 µM. For the same compound, the midpoint of cytotoxicity in series [1], the CC50 at 48 h, lay at 79.5 µM. Moreover, the selectivity ratio in series [2] came out at 3.5. Regarding `Cc1ccc(NC(=O)Cn2nc3cc(C)nc(Nc4ccc(F)c(C)c4)n3c2=O)cc1`, in the series on Trypanosoma cruzi, the IC50 result is recorded as “Not Active”. The same measure, in the same setting: the entry for `Cc1nn(C)c2[nH]c(=O)c(/C=C/C(=O)NCCc3ccc(Cl)cc3Cl)c(C)c12` is “Not Active”; for `CC(=O)c1cn(CC(=O)NCCCc2nnc3ccccn23)c2ccccc12` it is “Not Active”; for `CCOc1ccc(CCNC(=O)C2CCN(c3ncnc4onc(C)c34)CC2)cc1` it is “Not Active”. The same measure, in the same setting: the entry for `Cc1nn(C)c2[nH]c(=O)c(CCC(=O)NC[C@@H]3CCCc4ccccc43)c(C)c12` is “Not Active”. For the compound `OCCCNc1nc(Nc2ccccc2)c2cnn(-c3ccccc3)c2n1`, in the series on Trypanosoma cruzi (setting [3]), the IC50 was 7.1 µM. The compound further registered a half-maximal cytotoxic concentration (CC50) at 48 h in series [1] of 85.2 µM. Moreover, in series [2], the selectivity ratio was 12. For the compound `Cc1ccc(-n2nnnc2S[C@@H](C)C(=O)NC(=O)Nc2ccccc2)cc1`, the IC50 entry with Trypanosoma cruzi is “Not Active”. For `CCN(CCO)c1nc(Nc2cc(OC)ccc2OC)c2cnn(-c3ccccc3)c2n1`, the IC50 entry in the series with Trypanosoma cruzi is “Not Active”. Take `Cc1ccc(-c2noc(C(=O)NCCNC(=O)COc3ccc(Cl)c(C)c3)n2)cc1`: in the series with Trypanosoma cruzi, the IC50 entry is recorded as “Not Active”.

For the compound `CC(C)Nc1cc(C(=O)c2cc(F)ccc2O)cn2c(=O)c3ccccc3nc12`, the IC50 entry in the series with Trypanosoma cruzi was “Not Active”.

Regarding `Cc1ccc(C[C@H](C)NC(=O)Nc2ccc(C)c(-n3cnnn3)c2)s1`, the IC50 entry in the series with Trypanosoma cruzi was “Not Active”.

For `Cc1ccc(-n2nnnc2S[C@@H](C)C(=O)NCC(=O)Nc2ccc(F)c(F)c2F)c(C)c1`, the IC50 in the series with Trypanosoma cruzi (setting [3]) was 37.8 µM. For the same compound, the midpoint of cytotoxicity in series [1], the CC50 at 48 h, lay at 52.8 µM. Besides, the selectivity ratio in series [2] was 1.4. Taken in the same sequence, the figures for `CC[C@]1(c2ccccc2)NC(=O)N(NC(=O)CSc2nc(C)nc3sc(C)c(C)c23)C1=O` were 13.6 µM, greater than 200 µM and greater than 14.7. Taken in the same sequence, the figures for `CCCOCc1ccccc1CNC(=O)Nc1cnc2c(c1)c(C)nn2C` were 68.9 µM, 66.9 µM and 1. As to `Cc1cc(C)c2cc(C(=O)NCc3ccccc3Cn3cncn3)[nH]c2c1`, the IC50 result in the series with Trypanosoma cruzi is given as “Not Active”.

For `Cc1cn([C@@H](C)c2ccccc2)nc1NC(=O)CCc1nc(C(C)C)no1`, the IC50 entry in the series on Trypanosoma cruzi was “Not Active”. With `O=C(Nc1ccc(F)cc1F)[C@H](NS(=O)(=O)c1cccc2nsnc12)c1ccccc1`, in the series on Trypanosoma cruzi (setting [3]), the IC50 worked out at 55.2 µM. Further, the CC50 at 48 h in series [1] was greater than 200 µM. In addition, in series [2], the selectivity ratio was greater than 3.6.

Turning to `O=C(Cn1ccnc1[N+](=O)[O-])NCc1ccccc1` [BENZNIDAZOLE], in the series on Trypanosoma cruzi (setting [3]), the IC50 turned out to be 18.4 µM. This compound had a half-maximal cytotoxic concentration (CC50) at 48 h in series [1] greater than 200 µM. Moreover, the selectivity ratio in series [2] was greater than 10.7.

In the case of `COc1ccc2nc(NC(=O)CN(C)S(=O)(=O)c3cccc4nsnc34)sc2c1`, the IC50 entry in the series on Trypanosoma cruzi was “Not Active”. Same read-out and setting: the entry for `COc1ccc(C)cc1NC(=O)Cn1nc2cc(C)nc(Nc3ccc(F)cc3)n2c1=O` is “Not Active”; for `Cc1ccc(NC(=O)NC(=O)[C@@H](C)Sc2nncn2Cc2ccco2)c(C)c1` it is “Not Active”. In the case of `COc1ccccc1OCC#CCNS(=O)(=O)c1ccc(Cl)c(Cl)c1`, the IC50 with Trypanosoma cruzi (setting [3]) came to 32.1 µM. Also, the CC50 at 48 h in series [1] is 128 µM. For the same compound, in series [2], the selectivity ratio was 4.

Turning to `Cc1cc2nn(CC(=O)Nc3cc(F)cc(F)c3)c(=O)n2c(Nc2ccc(C)c(F)c2)n1`, the IC50 result with Trypanosoma cruzi is “Not Active”. `Cc1cc(C)c2cc(C(=O)Nc3ccccc3-n3cncn3)[nH]c2c1`: the IC50 with Trypanosoma cruzi (setting [3]) was determined as 9 µM. Further, in series [1], the CC50 at 48 h worked out at 80.9 µM. For the same compound, in series [2], the selectivity ratio was 8.9.

`CCOc1ccccc1C(=O)NCC(=O)N1CCC[C@@H](c2nnc3n2CCCCC3)C1`: in the series on Trypanosoma cruzi, the IC50 result is “Not Active”.

With `Cc1cc(C)cc(Nc2nc(C)cc3nn(CC(=O)Nc4ccc(C)c(F)c4)c(=O)n23)c1`, the IC50 entry with Trypanosoma cruzi was “Not Active”. Regarding `OCCCNc1nc(Nc2ccc(F)cc2)c2cnn(-c3ccccc3)c2n1`, the half-inhibitory concentration (IC50) in the series with Trypanosoma cruzi (setting [3]) was 14.8 µM. Besides, in series [1], half-maximal cytotoxicity (CC50 at 48 h) was put at 39.2 µM. Further, the selectivity ratio in series [2] came to 2.6. Regarding `Cn1nnc2cc(C(=O)Nc3nccn3Cc3ccccc3Cl)ccc21`, in the series on Trypanosoma cruzi, the IC50 result was “Not Active”. Regarding `Cc1ccccc1Nc1nc(N(C)CCO)nc2c1cnn2-c1ccccc1`, the IC50 in the series with Trypanosoma cruzi (setting [3]) was found to be 12.8 µM. This compound registered a CC50 at 48 h in series [1] of 25 µM. Also, in series [2], the selectivity ratio turned out to be 2.

As to `Cc1ccc(-n2cnnn2)cc1NC(=O)N[C@H](C)c1cccc(Cl)c1`, the IC50 entry in the series on Trypanosoma cruzi is “Not Active”.

For the origin of these results see ChEMBL document CHEMBL5325404, “Identification of inhibitors as drug candidates against Chagas disease” (Eur J Med Chem, 2023).
